Assay results as given in patent US12478690B2, “Methods and systems for controlled release of drug cargo via ATP-responsive liposomes” (UNIVERSITY OF TENNESSEE RESEARCH FOUNDATION, priority 2021, dated 2025).

Assay: Diffusion ordered spectroscopy (DOSY) of the lipid switch before and after ATP
Format: physicochemical
Conditions: DMSO containing 8% D2O; substance alone
Method: Diffusion ordered spectroscopy (DOSY) was performed on 1a lipid switch molecules in de-DMSO containing 8% D2O before and after adding ATP. A decrease in diffusion coefficient was observed. In at least one experiment, the diffusion coefficient decreased from (1.0793±0.043)×10^−6 cm^2/s for 1a lipid switch molecule and (1.142±0.018)×10^−6 cm^2/s for ATP to (0.987±0.098)×10^−6 cm^2/s for 1a+ATP. The diffusion coefficient indicates an increase in the hydrodynamic radius per lipid molecule upon binding.

Nc1ncnc2c1ncn2[C@@H]1O[C@H](COP(=O)(O)OP(=O)(O)OP(=O)(O)O)[C@@H](O)[C@H]1O [ATP, adenosine triphosphate]
Diffusion coefficient: 1.142±0.018 ×10^−6 cm^2/s
